From ChEMBL document CHEMBL5550182, “Exploring the interaction of N-(benzothiazol-2-yl)pyrrolamide DNA gyrase inhibitors with the GyrB ATP-binding site lipophilic floor: A medicinal chemistry and QTAIM study” (Bioorg Med Chem, 2024)

Target: DNA gyrase (Escherichia coli, UniProt P0AES4+P0AES6)
Assay: Inhibition of Escherichia coli DNA gyrase supercoiling using relaxed pNO1 as substrate measured after 30 mins by SybrGOLD staining based fluorescence analysis
Assay type: protein-complex assay

Row | Structure (SMILES) | IC50
1 | Cc1[nH]c(C(=O)N(Cc2cccc(C(=O)O)c2)c2nc3ccc(NC(=O)C(=O)O)cc3s2)c(Cl)c1Cl | 2.8 µM
2 | CC(=O)Nc1ccc2c(c1)s/c(=N\C(=O)c1[nH]c(C)c(Cl)c1Cl)n2Cc1ccc(C(=O)O)cc1 | 0.6 µM
3 | CC(=O)Nc1ccc2nc(N(CCc3ccccc3)C(=O)c3[nH]c(C)c(Cl)c3Cl)sc2c1 | 162 µM
4 | Cc1[nH]c(C(=O)N(CCc2ccccc2)c2nc3ccc(NC(=O)C(=O)O)cc3s2)c(Cl)c1Cl | 2.2 µM
5 | CC(=O)Nc1ccc2c(c1)s/c(=N\C(=O)c1[nH]c(C)c(Cl)c1Cl)n2Cc1ccccc1 | 5.8 µM
6 | CC(=O)Nc1ccc2c(c1)s/c(=N\C(=O)c1[nH]c(C)c(Cl)c1Cl)n2CCc1ccccc1 | 0.62 µM
7 | Cc1[nH]c(C(=O)N(Cc2ccc(C(=O)O)cc2)c2nc3ccc(NC(=O)C(=O)O)cc3s2)c(Cl)c1Cl | 1 µM
8 | Cc1[nH]c(C(=O)/N=c2\sc3cc(NC(=O)C(=O)O)ccc3n2Cc2ccc(C(=O)O)cc2)c(Cl)c1Cl | 0.32 µM
9 | CC(=O)Nc1ccc2nc(N(Cc3ccc(C(=O)O)cc3)C(=O)c3[nH]c(C)c(Cl)c3Cl)sc2c1 | 35 µM
10 | Cc1[nH]c(C(=O)/N=c2\sc3cc(NC(=O)C(=O)O)ccc3n2Cc2cccc(C(=O)O)c2)c(Cl)c1Cl | 0.013 µM
11 | CC(=O)Nc1ccc2c(c1)s/c(=N\C(=O)c1[nH]c(C)c(Cl)c1Cl)n2Cc1cccc(C(=O)O)c1 | 0.1 µM
12 | CC(=O)Nc1ccc2nc(N(Cc3ccccc3)C(=O)c3[nH]c(C)c(Cl)c3Cl)sc2c1 | 90 µM
13 | CC(=O)Nc1ccc2nc(N(Cc3cccc(C(=O)O)c3)C(=O)c3[nH]c(C)c(Cl)c3Cl)sc2c1 | 54 µM
14 | Cc1[nH]c(C(=O)/N=c2\sc3cc(NC(=O)C(=O)O)ccc3n2Cc2ccccc2)c(Cl)c1Cl | 0.018 µM
15 | Cc1[nH]c(C(=O)/N=c2\sc3cc(NC(=O)C(=O)O)ccc3n2CCc2ccccc2)c(Cl)c1Cl | 0.1 µM
16 | Cc1[nH]c(C(=O)N(Cc2ccccc2)c2nc3ccc(NC(=O)C(=O)O)cc3s2)c(Cl)c1Cl | 0.043 µM
